Patent EP3996814B1, “USE OF A HERBAL EXTRACT COMPRISING VERBASCOSIDE AND AUCUBIN FOR THE TREATMENT OF OSTEOARTHRITIS OF THE KNEE” (Labiotre S.r.l., priority 2019, dated 2021)

How the values were obtained:
[1] = system: human neutrophils; test: MTT cell viability test; format: cell-based; details: 1% solution, 24 hours; untreated cells = 100%
Protocol: Human neutrophils were isolated from whole blood samples taken from 10 healthy volunteers (5 men and 5 women, mean age: 34.1 ± 3.7 years) using the EasySep™ Direct human neutrophil isolation kit ([…] Technologies, Vancouver, Canada). After isolation, neutrophils were resuspended at a concentration of 5 * 10^6 cells/ml in Hank's balanced saline solution (37°C) containing 10 mM of HEPES pH 7.4, 1.6 mM Ca^2+ and not Mg^2+.
Cell viability was determined using the MTT test kit (Promega, Madison, WI, USA) according to the manufacturer's protocol (MTT: 3-(4,5-dimethylthiazol-2-yl)-2,5-diphenyltetrazolium bromide). In order to determine the cytotoxicity of the herbal extract of the invention, the cells were incubated with aqueous solutions of the herbal extract of the invention at three different concentrations (1%, 3% and 5%) for 24 hours. The cultures of the control group were not treated and the viability thereof was set to 100%. […] Int J Pharm Sei (2012) 3: 2325-2336]. […] Absorbance was subsequently measured with a microplate reader (Bio-Tek, Winooski, VT, USA) at a test wavelength of 595 nm and a reference wavelength of 690 nm. The optical density (OD) was calculated as the […]. The viability percentage was calculated using the following formula: (OD of treated sample / control OD) x 100.

[2] = system: PGE2; test: PGE2 enzyme immunoassay in LPS-stimulated neutrophils; format: cell-based, human; details: 5 µg/ml of LPS plus test substance 1%, 24 hours
Protocol: Human neutrophils were isolated from whole blood samples taken from 10 healthy volunteers (5 men and 5 women, mean age: 34.1 ± 3.7 years) using the EasySep™ Direct human neutrophil isolation kit ([sequence] Technologies, Vancouver, Canada). After isolation, neutrophils were resuspended at a concentration of 5 * 10^6 cells/ml in Hank's balanced saline solution (37°C) containing 10 mM of HEPES pH 7.4, 1.6 mM Ca^2+ and not Mg^2+.
Experiments were conducted on RPMI medium (RPMI: Rosewell Park Memorial Institute, cation-deficient medium Ca2+ and Mg2+ commonly used for white blood line cells) supplemented with 1% fetal bovine serum (37°C, 5% CO2, 95% humidity) after seeding neutrophils (5x10^5 cells/well) in a 96-well plate.
Evaluation of PGE2 concentrations in each well under six different experimental conditions was conducted using a commercially available competitive PGE2 enzyme immunoassay kit (GE Healthcare, Milwaukee, WI, USA). All tests were conducted three times.

[3] = system: patients with mild to moderate osteoarthritis of the knee; test: Randomised, single-blind, active-controlled pilot clinical study, clinical endpoints (VAS, range of motion, WOMAC); format: in vivo, human; details: oral 200 mg/day, n = 50; for WOMAC scores Stiffness: range 0-8; for WOMAC scores Pain: range 0-20; for WOMAC scores Physical functionality: range 0-68; for WOMAC scores Total: range 0 to 96
Protocol: (§1) The inclusion criteria were as follows: 1) presence of symptoms for at least one month, 2) number of leukocytes in synovial fluid < 2000/ml, 3) pain on a visual analogue scale (VAS) ≥ 2 at rest and 4) duration of stiffness in the morning ≤ 30 min. The following exclusion criteria were applied: 1) pregnancy or breastfeeding, 2) history of severe renal, hepatic, cardiac, gastrointestinal or haematological diseases, 3) presence of malignant tumours, 4) presence of neurological or psychiatric disorders, 5) atopy or allergic disorders, 6) diabetes mellitus or other endocrine disorders, 7) coagulation disorders, 8) history of peptic ulcer disease, 9) use of corticosteroid in the four weeks prior to the study and 10) use of NSAIDs in the two weeks prior to the study. According to the Kellgren-Lawrence classification system, 61.3% and 38.7% of patients in the study had scores of 1 and 2, respectively.
The study period was two weeks.
Patients (n = 150) were randomised into three study groups (1:1:1 ratio). The randomisation sequence was generated by a special software.
A total of three assessments were performed (at baseline, one week and at the end of the 2-week treatment period).
Clinical endpoints included: • 1) patient's evaluation of the arthritis pain score (VAS) at rest (range: 0-10; where 0 is no pain and 10 is maximum pain), • 2) patient's evaluation of the arthritis pain score (VAS) at movement (range: 0-10; where 0 is no pain and 10 is maximum pain), • 3) joint motion range (degrees) and • 4) WOMAC (Western Ontario and McMaster University) index score [Salaffi et al. Osteoarthritis cartilage 2003; 11: 551-60].
WOMAC score consists of sub-scales that measure pain (range: 0-20; where 0 is no pain and 20 is the maximum pain), stiffness (range: 0-8, where 0 is no stiffness and 8 is the maximum stiffness) and physical functionality (range: 0-68, where 0 is the best functionality and 68 is the worst functionality). The resulting total composite score ranges from 0 to 96.

[4] = Safety in the clinical study (treatment-emergent adverse events, laboratory tests); format: in vivo, human; details: oral 200 mg/day for 2 weeks, n = 50
Protocol: as §1
Safety was evaluated by recording treatment-emergent adverse events and changes with respect to the baseline in clinical laboratory tests, in vital signs and in objective examinations, all of which were performed during visits at weeks 1 and 2. Clinically relevant changes in laboratory values were defined as: • aspartate aminotransferase (AST) and/or alanine transaminase (ALT) ≥ 3 × upper limit of normal (ULN), • creatinine ≥ 1.3 × ULN, • blood urea nitrogen (BUN) ≥ 2 × ULN, • decrease in haematocrit value ≥ 5 percentage points with respect to the baseline and • decrease in haemoglobin value ≥ 2 g/dl from baseline.

[5] = system: substance P; test: Serum substance P levels (ELISA) in the clinical study; details: oral 200 mg/day, n = 50

## Cc1ccc(-c2cc(C(F)(F)F)nn2-c2ccc(S(N)(=O)=O)cc2)cc1 [Celecoxib]
[1]
  cell viability (MTT), % of the control value: 90 ± 2%
[2]
  PGE2 levels: 19.21 ± 2.39 pg/well
[3]; Baseline
  Pain at motion, VAS (0-10): 3.8 ± 0.6
  Pain at rest, VAS (0-10): 2.9 ± 0.4
  Range of motion (degrees): 134 ± 10 degrees
  WOMAC scores Stiffness: 1.4 ± 0.3
  WOMAC scores Pain: 5.7 ± 0.8
  WOMAC scores Physical functionality: 20.5 ± 3.2
  WOMAC scores Total: 27.6 ± 3.8
[3]; End of study (2 weeks)
  Pain at motion, VAS (0-10): 2.2 ± 0.4
  Pain at rest, VAS (0-10): 1.5 ± 0.4
  Range of motion (degrees): 173 ± 19 degrees
  WOMAC scores Stiffness: 0.7 ± 0.1
  WOMAC scores Pain: 3.0 ± 0.9
  WOMAC scores Physical functionality: 11.4 ± 1.7
  WOMAC scores Total: 15.1 ± 2.2
[3]; One week
  Pain at motion, VAS (0-10): 2.9 ± 0.5
  Pain at rest, VAS (0-10): 2.0 ± 0.3
  Range of motion (degrees): 160 ± 15 degrees
  WOMAC scores Stiffness: 1.0 ± 0.2
  WOMAC scores Pain: 4.1 ± 0.9
  WOMAC scores Physical functionality: 14.6 ± 2.1
  WOMAC scores Total: 19.7 ± 2.9
[4]
  Gastrointestinal adverse events: Constipation: 2 (4%) number of patients (percentages in brackets)
  Gastrointestinal adverse events: Nausea: 2 (4%) number of patients (percentages in brackets)
  Other adverse events: Headache: 3 (6%) number of patients (percentages in brackets)
  Other adverse events: Itching: 1 (2%) number of patients (percentages in brackets)
  changes with respect to the baseline in laboratory safety tests: no changes with respect to the baseline
[5]; Baseline
  SP (serum substance P): 436 ± 95 pg/mL
[5]; End of study (2 weeks)
  SP (serum substance P): 299 ± 64 pg/mL
[5]; One week
  SP (serum substance P): 358 ± 78 † pg/ml
